According to patent US6492124B1, “Trance activated signal transduction pathways in osteoclasts” (The Rockefeller University, priority 1999, dated 2002):

Key:
Type in all cases: cell-based, mouse
[1] = tested on: p44/42 ERK; assay: p44/42 ERK phosphorylation in osteoclasts and dendritic cells (Western blot); conditions: after 20 min of TRANCE stimulation
Procedure: FIG. 1. TRANCE activates p44/42 ERK, NF-κB and PKB in osteoclasts and dendritic cells. (A) Mature bone marrow-derived osteoclasts were stimulated for the indicated times with recombinant hCD8-TRANCE (TRANCE; 1 μg/ml). Levels of phosphorylated forms of p44/p42 ERK (p44 ERK^P and p42 ERK^P), IκBα (IκB-α^P) and PKB (PKB^P) in whole cell extracts were determined using phospho-peptide-specific antibodies as indicated in the figure. The membranes were stripped and incubated with antibodies against the p44/p42 ERK, IκB-α, and PKB as indicated to confirm that similar amounts of whole cell extracts were analyzed. Note the decrease of IκB-α after 10 min of treatment due to its degradation. (B) as in (A) except the use of mature bone marrow-derived dendritic cells instead of osteoclasts.
Cell stimulation, cell transfection and in vitro assays. In vitro differentiated mature dendritic cells, macrophages and osteoclasts were washed to remove exogenous growth factors, cultured in media with low serum (0.5% FCS, 6 hours), then stimulated by adding various cytokines in the presence or absence of inhibitors for various times as indicated. After stimulation, the cells were washed in ice-cold PBS, and subjected to Western blot analysis or immunoprecipitation as described below. […]

[2] = tested on: JNK; assay: JNK activation measured by its phosphorylation in osteoclasts and dendritic cells; conditions: TRANCE, data not shown
Procedure: Cell stimulation, cell transfection and in vitro assays. In vitro differentiated mature dendritic cells, macrophages and osteoclasts were washed to remove exogenous growth factors, cultured in media with low serum (0.5% FCS, 6 hours), then stimulated by adding various cytokines in the presence or absence of inhibitors for various times as indicated. After stimulation, the cells were washed in ice-cold PBS, and subjected to Western blot analysis or immunoprecipitation as described below.
For Western blotting, whole-cell extracts (20 μg of total protein), immunoprecipitates or kinase reactions were resolved on SDS-PAGE, electro-blotted to PVDF membranes (Immobilon-P, Millipore) according to standard methods (Maniatis, et al., Molecular Cloning: A Laboratory Manual (Cold Spring Harbor Laboratory, New York) 1989), probed with antibodies according to the manufacturer's protocol, and visualized using an immunodetection system. Stripping was performed by incubating the blots in stripping buffer (62.5 mM Tris pH 6.8, 2% SDS, 100 mM β-mercaptoethanol) for 30 min at 55° C.

[3] = tested on: c-Src; assay: c-Src immunoprecipitate in vitro kinase assay with SAM68 after TRANCE stimulation of cells
Procedure: FIG. 3. c-Src is required for TRANCE-induced PKB activation and osteoclast survival. (A) c-Src was immunoprecipitated from osteoclasts, dendritic cells and macrophages stimulated with TRANCE (1 μg/ml) for the indicated times using an anti-c-Src-specific monoclonal antibody (327). PTK activity of the c-Src immunprecipitates were measured in vitro using SAM68, a PTK specific substrate. The degree of SAM68 phosphorylation was determined by Western blot analysis using an anti-phospho-tyrosine antibody (4G10) and densitometry. Note that c-Src kinase activity was not detectable in TRANCE-treated macrophages most likely due to low levels of c-Src in these cells (Lacey, et al., supra, 1998). (B) Osteoclasts derived from wild type and c-Src deficient mice were stimulated with TRANCE (5 μg/ml) for 10 min and the levels of phosphorylated PKB (PKB^P), total PKB, and total IκBα were determined as in FIG. 1. […] TRAP solution assays were performed and percent survival calculated. […] Osteoclasts were detected by TRAP solution assays. […]
FIG. 5. […] PTK activity of the c-Src immunoprecipitates was measured by in vitro kinase assays using SAM68 as a PTK substrate. The degree of SAM68 phosphorylation (SAM68^P) was determined by Western blot analysis using a phospho-tyrosine specific antibody (4G10) followed by densitometry. […] The degree of SAM68 phosphorylation (SAM68^P) was determined as in (A). […]

How did the ERK phosphorylation [1] turn out when “TNF-related activation-induced cytokine [TRANCE]” was run?
Its ERK phosphorylation is “transiently induced”.

And the “JNK activation as measured by its phosphorylation” value [2]?
The value was “not detected”.

And the c-Src kinase activity ([3]; TRANCE-treated macrophages)?
Its c-Src kinase activity is “no detectable”.

And the “induction of c-Src kinase activity” value ([3]; osteoclasts and dendritic cells, TRANCE 1 μg/ml)?
The value was “approximately 2 fold”.
